The source made the active and inactive calls. No cut-off for these calls is given here.
Test system: not listed separately
Experiment: Half life in mouse at 2 mg/kg
Format: ADME, organism-based
Set-up: dose 2 mg/kg
Details: in vivo

Row | Compound | half-life
1 | Cc1cc(Oc2ncc(C(F)(F)F)cc2Cl)ccc1CC1SC(=O)NC1=O (stereo not drawn) | 5.1 h

Test system: not listed separately
Experiment: Plasma concentration in lean mouse at 30 mg/kg, po pretreated 1 hr before dextrose challenge measured after 2 hrs
Format: ADME, organism-based
Set-up: dose 30 mg/kg, route oral
Details: not given

Row | Compound | concentration at 2 h
2 | Cc1cc(Oc2ncc(C(F)(F)F)cc2Cl)ccc1CC1SC(=O)NC1=O (stereo not drawn) | 37 µM

Test system: not listed separately
Experiment: Tmax in mouse at 2 mg/kg
Format: ADME, organism-based
Set-up: dose 2 mg/kg
Details: in vivo

Row | Compound | Tmax
3 | Cc1cc(Oc2ncc(C(F)(F)F)cc2Cl)ccc1CC1SC(=O)NC1=O (stereo not drawn) | 3 h

Test system: Mus musculus
Experiment: Reduction in glucose excursion in lean mouse assessed as inhibition of glucose AUC at 30 mg/kg, po pretreated 1 hr before dextrose challenge by intraperitoneal glucose tolerance test
Format: functional
Set-up: scale not given: the % may be the effect or the level left
Details: not given

Row | Compound | Activity
4 | Cc1cc(Oc2ncc(C(F)(F)F)cc2Cl)ccc1CC1SC(=O)NC1=O (stereo not drawn) | 73%

Target: T1, Free fatty acid receptor 1 (Homo sapiens, UniProt O14842)
T1 sequence (O14842 whole entry): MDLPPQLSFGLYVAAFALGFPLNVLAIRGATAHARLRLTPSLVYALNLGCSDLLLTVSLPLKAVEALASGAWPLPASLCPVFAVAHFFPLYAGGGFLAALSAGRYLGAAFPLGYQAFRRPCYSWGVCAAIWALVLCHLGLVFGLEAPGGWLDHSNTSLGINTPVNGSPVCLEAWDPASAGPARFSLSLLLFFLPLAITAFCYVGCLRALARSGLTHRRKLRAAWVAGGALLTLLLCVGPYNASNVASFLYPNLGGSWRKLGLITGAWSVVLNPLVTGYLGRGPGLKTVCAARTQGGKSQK
Experiment: Agonist activity at human GPR40 at 40 uM by FLIPR assay in presence of 1% BSA
Format: functional
Details: not given

Row | Compound | Activity
5 | O=C1NC(=O)C(Cc2ccc(Oc3ccc(C(F)(F)F)cc3Cl)c3ccccc23)S1 (stereo not drawn) | 46%
6 | CN1C(=O)NC(=O)C1Cc1ccc(Oc2ccc(Cl)cc2Cl)cc1 (stereo not drawn) | 2%
7 | O=C1COC(Cc2ccc(Oc3ccc(Cl)cc3Cl)cc2)C(=O)N1 (stereo not drawn) | 23%
8 | O=C1CCC(Cc2ccc(Oc3ccc(Cl)cc3Cl)cc2)C(=O)N1 (stereo not drawn) | 6%

Test system: not listed separately
Experiment: Cmax in mouse at 2 mg/kg
Format: ADME, organism-based
Set-up: dose 2 mg/kg
Details: in vivo

Row | Compound | Cmax
9 | Cc1cc(Oc2ncc(C(F)(F)F)cc2Cl)ccc1CC1SC(=O)NC1=O (stereo not drawn) | 1.4 µM

Test system: Mus musculus
Experiment: Reduction in glucose excursion in po dosed lean mouse pretreated 1 hr before dextrose challenge by intraperitoneal glucose tolerance test
Format: functional, organism-based
Details: not given

Row | Compound | Activity
10 | Cc1cc(Oc2ncc(C(F)(F)F)cc2Cl)ccc1CC1SC(=O)NC1=O (stereo not drawn) | Dose-dependent effect

Test system: not listed separately
Experiment: Clearance in mouse at 2 mg/kg
Format: ADME, organism-based
Set-up: dose 2 mg/kg
Details: in vivo

Row | Compound | clearance
11 | Cc1cc(Oc2ncc(C(F)(F)F)cc2Cl)ccc1CC1SC(=O)NC1=O (stereo not drawn) | 1.9 mL/min/kg

Test system: Mus musculus
Experiment: Reduction in glucose excursion in lean mouse at 3 to 100 mg/kg, po pretreated 1 hr before dextrose challenge by intraperitoneal glucose tolerance test
Details: not given

Row | Compound | Activity
12 | Cc1cc(Oc2ncc(C(F)(F)F)cc2Cl)ccc1CC1SC(=O)NC1=O (stereo not drawn) | Active

Test system: Mus musculus
Experiment: Reduction in glucose excursion in GPR40-/- lean mouse assessed as inhibition of glucose AUC at 30 mg/kg, po pretreated 1 hr before dextrose challenge by intraperitoneal glucose tolerance test
Format: functional, organism-based
Set-up: dose 30 mg/kg
Details: not given

Row | Compound | Activity
13 | Cc1cc(Oc2ncc(C(F)(F)F)cc2Cl)ccc1CC1SC(=O)NC1=O (stereo not drawn) | inactive

Target: T1, Free fatty acid receptor 1
Experiment: Agonist activity at human GPR40 by FLIPR assay in presence of 1% BSA
Format: functional
Details: read-out: EC50

Row | Compound | EC50
14 | O=C1NC(=O)C(Cc2ccc(Oc3cccc(Cl)c3)cc2)S1 (stereo not drawn) | 318 nM
15 | Cc1cccc(Oc2ccc(CC3SC(=O)NC3=O)cc2)n1 (stereo not drawn) | 2620 nM
16 | Cc1cc(Oc2ncc(C(F)(F)F)cc2Cl)cc(C)c1CC1SC(=O)NC1=O (stereo not drawn) | 5450 nM
17 | O=C1NC(=O)C(Cc2cccc(Oc3ccccc3)c2)S1 (stereo not drawn) | 4700 nM
18 | O=C1NC(=O)C(Cc2ccc(Oc3ncc(Cl)cc3Cl)cc2)S1 (stereo not drawn) | 90 nM
19 | Cc1cc(C)cc(Oc2ccc(CC3SC(=O)NC3=O)cc2)c1 (stereo not drawn) | 96 nM
20 | O=C1NC(=O)C(Cc2ccc(Oc3cc(C(F)(F)F)ccn3)cc2)S1 (stereo not drawn) | 237 nM
21 | O=C1NC(=O)C(Cc2ccc(Oc3ccccc3Cl)cc2)S1 (stereo not drawn) | 1190 nM
22 | O=C1NC(=O)C(Cc2ccc(Oc3ccc(Cl)cc3Cl)cc2)S1 (stereo not drawn) | 101 nM
23 | Cc1ccc(Oc2ccc(CC3SC(=O)NC3=O)cc2)nc1 (stereo not drawn) | 4470 nM
24 | Cc1cc(Oc2ccc(C(F)(F)F)cc2Cl)ccc1CC1SC(=O)NC1=O (stereo not drawn) | 18 nM
25 | Cc1cccnc1Oc1ccc(CC2SC(=O)NC2=O)cc1 (stereo not drawn) | 1090 nM
26 | O=C1NC(=O)C(Cc2ccc(-c3ccccc3)cc2)S1 (stereo not drawn) | 2220 nM
27 | O=C1NC(=O)C(Cc2ccc(Oc3ccc(Cl)cc3)cc2)S1 (stereo not drawn) | 240 nM
28 | O=C1NC(=O)C(Cc2ccc(Oc3cccc4ccccc34)cc2)S1 (stereo not drawn) | 135 nM
29 | Cc1ccnc(Oc2ccc(CC3SC(=O)NC3=O)cc2)c1 (stereo not drawn) | 4280 nM
30 | O=C1NC(=O)C(Cc2ccc(Oc3cc4ccccc4cn3)cc2)S1 (stereo not drawn) | 144 nM
31 | O=C1NC(=O)C(Cc2ccc(Oc3ccc(Cl)cc3Cl)cc2C(F)(F)F)S1 (stereo not drawn) | 88 nM
32 | O=C1NC(=O)C(Cc2ccc(/C=C/c3ccccc3)cc2)S1 (stereo not drawn) | 2090 nM
33 | Cc1ccccc1Oc1ccc(CC2SC(=O)NC2=O)cc1 (stereo not drawn) | 124 nM
34 | O=C1NC(=O)C(Cc2ccc(Oc3ncc(C(F)(F)F)cc3Cl)c3ccccc23)S1 (stereo not drawn) | 23600 nM
35 | Cc1cccc(Oc2ccc(CC3SC(=O)NC3=O)cc2)c1C (stereo not drawn) | 334 nM
36 | O=C1NC(=O)C(Cc2ccc(OCc3ccccc3)cc2)S1 (stereo not drawn) | 6180 nM
37 | Cc1cc(Oc2ccc(CC3SC(=O)NC3=O)cc2)nc(C(F)(F)F)c1 (stereo not drawn) | 688 nM
38 | O=C1CC(Cc2ccc(Oc3ccc(Cl)cc3Cl)cc2)C(=O)N1 (stereo not drawn) | 6450 nM
39 | COc1cc(Oc2ccc(Cl)cc2Cl)ccc1CC1SC(=O)NC1=O (stereo not drawn) | 1410 nM

Row | Compound | EC50
40 | O=C1NC(=O)C(Cc2ccc(Oc3cc(Cl)cc(Cl)c3)cc2)S1 (stereo not drawn) | 207 nM
41 | Cc1cc(Oc2ncc(C(F)(F)F)cc2Cl)ccc1CC1SC(=O)NC1=O (stereo not drawn) | 10 nM
42 | Cc1cc(Oc2ccc(CC3SC(=O)NC3=O)cc2)cc(C)c1C#N (stereo not drawn) | 120 nM
43 | O=C1NC(=O)C(Cc2ccc(Oc3ccc(C(F)(F)F)cc3Cl)cc2)S1 (stereo not drawn) | 78 nM
44 | Cc1ccc(C)c(Oc2ccc(CC3SC(=O)NC3=O)cc2)c1 (stereo not drawn) | 238 nM
45 | O=C1NC(=O)C(Cc2ccc(Oc3ccc(C(F)(F)F)cn3)cc2)S1 (stereo not drawn) | 558 nM
46 | Cc1ccc(Oc2ccc(CC3SC(=O)NC3=O)cc2)c(C)c1 (stereo not drawn) | 121 nM
47 | O=C1NC(=O)C(Cc2ccc(Cc3ccccc3)cc2)S1 (stereo not drawn) | 9280 nM
48 | Cc1cccc(Oc2ccc(CC3SC(=O)NC3=O)cc2)c1 (stereo not drawn) | 203 nM
49 | O=C1NC(=O)C(Cc2ccc(C(=O)c3ccccc3)cc2)S1 (stereo not drawn) | 5300 nM
50 | COc1cc(Oc2ncc(C(F)(F)F)cc2Cl)ccc1CC1SC(=O)NC1=O (stereo not drawn) | 13800 nM
51 | Cc1ccc(Oc2ccc(CC3SC(=O)NC3=O)cc2)cc1C (stereo not drawn) | 727 nM
52 | O=C1NC(=O)C(Cc2ccc(Oc3ccc(Cl)cc3Cl)cc2)O1 (stereo not drawn) | 4020 nM
53 | O=C1NC(=O)C(Cc2ccc(Oc3ncccc3C(F)(F)F)cc2)S1 (stereo not drawn) | 2290 nM
54 | O=C1NC(=O)C(Cc2ccc(Oc3ncc(Cl)cc3Cl)cc2Cl)S1 (stereo not drawn) | 63 nM
55 | O=C1NC(=O)C(Cc2ccc(Oc3ccc(F)cc3)cc2)S1 (stereo not drawn) | 480 nM
56 | O=C1NC(=O)C(Cc2ccc(Oc3ncc(C(F)(F)F)cc3Cl)cc2)S1 (stereo not drawn) | 69 nM
57 | Cc1ccc(Oc2ccc(CC3SC(=O)NC3=O)cc2)cc1 (stereo not drawn) | 547 nM
58 | O=C1NC(=O)C(Cc2ccc(CCc3ccccc3)cc2)S1 (stereo not drawn) | 1080 nM
59 | O=C1NC(=O)C(Cc2ccc(Oc3ncc(C(F)(F)F)cc3Cl)cc2Cl)S1 (stereo not drawn) | 26 nM
60 | O=C1NC(=O)C(Cc2ccc(Oc3cccc(C(F)(F)F)n3)cc2)S1 (stereo not drawn) | 1630 nM
61 | O=C1NC(=O)C(Cc2ccccc2Oc2ccccc2)S1 (stereo not drawn) | 11300 nM
62 | Cc1cc(C(F)(F)F)cc(Oc2ccc(CC3SC(=O)NC3=O)cc2)n1 (stereo not drawn) | 218 nM
63 | O=C1NC(=O)C(Cc2ccc(Oc3ccccc3)cc2)S1 (stereo not drawn) | 307 nM
64 | O=C1NC(=O)C(Cc2ccc(Oc3ccc(Cl)cn3)cc2)S1 (stereo not drawn) | 1870 nM
65 | O=C1NC(=O)C(Cc2ccc(Sc3ccccc3)cc2)S1 (stereo not drawn) | 5060 nM

Same assay, conditions: read-out: pEC50 (converted)

Row | Compound | EC50
66 | Cc1nc(-c2ccc(C(F)(F)F)cc2)sc1CNc1ccc(C2CC2C(=O)O)cc1 (stereo not drawn) | 10 nM
67 | O=C(O)CCc1ccc(NCc2cccc(Oc3ccccc3)c2)cc1 [GW9508] | 100 nM

Test system: not listed separately
Experiment: Oral bioavailability in mouse at 2 mg/kg
Format: ADME, organism-based
Details: in vivo

Row | Compound | bioavailability
68 | Cc1cc(Oc2ncc(C(F)(F)F)cc2Cl)ccc1CC1SC(=O)NC1=O (stereo not drawn) | 100%

From ChEMBL document CHEMBL1156842, “Discovery of 5-aryloxy-2,4-thiazolidinediones as potent GPR40 agonists” (Bioorg Med Chem Lett, 2010)
